{"source": "patent US9701709B2", "about": "(REATA PHARMACEUTICALS, INC., priority 2012, dated 2017)", "key": {"[1]": {"assay": "Metabolism in monkey liver microsomes", "format": "in vitro ADME", "conditions": "60-min incubation, NADPH and UGT"}, "[2]": {"system": "bleomycin-induced pulmonary fibrosis", "assay": "Bleomycin-induced pulmonary fibrosis in mice", "format": "in vivo, mouse", "conditions": "10, 30, or 100 mg/kg oral gavage daily for 39 days"}, "[3]": {"system": "C4-2B-Luc and DU145-Luc human prostate cancer tumors", "assay": "Pilot in vivo prostate tumor model with ionizing radiation (luciferase imaging)", "set-up": "species or system mouse", "conditions": "17.5 mg/kg i.p. plus 18 Gy; n=1", "description": "The colors indicated by the arrows are indicative of intensity with the intensities being represented by red, yellow, green, and blue in order from highest to lowest intensity.\nAfter the successful results of the in vitro assay, a pilot in vivo assay was carried out using LNCaP/C4-2B and DU145 human prostate cancer engineered to express firefly luciferase (hereafter referred to as C4-2B-Luc and DU145-Luc, respectively). Of note, both of these cell lines grow in an androgen-independent fashion. Cells were cultured in RPMI 1640 supplemented with 10% FBS. Cells were harvested using TrypLE Express (Invitrogen) and washed in PBS and counted. Cells were reconstituted in PBS to arrive at a final concentration of 3×10^6 cells per 30 μL (unless otherwise stated) and aliquoted in separate tubes. Growth factor-reduced Matrigel (BD Bioscience) was thawed overnight at +4° C. and transferred into the tubes in 30 μL aliquots. The cell/Matrigel solutions were transferred to the vivarium and mixed right before injection at a 1:1 ratio. Each mouse (n=1 per group for a total of three animals) received a single subcutaneous injection of the tumor cells. Tumors were pre-established for 4 weeks. […] Tumor progression was monitored weekly via live imaging. […] For standardization, minimal exposure time necessary to image control tumor was determined and all animals were imaged under these conditions. […]"}, "neurobehavioral measures": {"system": "neurobehavioral measures", "assay": "Neurobehavioral evaluation (FOB) in rats", "format": "in vivo, rat", "description": "One additional group of 10 animals/sex served as the control and received vehicle (sesame oil).\nObservations for morbidity, mortality, injury, and availability of food and water were conducted twice daily for all animals. Observations for clinical signs were conducted prior to dosing on Day 1 and following each functional observational battery (FOB) evaluation. FOB evaluations were conducted pre-dose (Day −1) and at approximately 4 and 24 h post-dose. Body weights were measured and recorded pre-dose on Day 1."}, "[4]": {"system": "pyruvate in C2Cl2 muscle cells", "assay": "Pyruvate levels in C2Cl2 myotubes", "format": "cell-based, rodent", "conditions": "differentiated C2Cl2 myotubes; 250 nM or 500 nM, 18 h", "description": "Following drug treatment, media was removed and cells were washed with PBS. Cells were lysed in Pyruvate Assay Buffer (Pyruvate Assay Kit, BioVision, Catalog # K609-100). Cell lysates were centrifuged (10 min at 14,000 rpm, 4° C.) and pyruvate levels were measured in the supernatant."}}}
{"smiles": "CC1(C)CC[C@]2(NC(=O)C(C)(F)F)CC[C@]3(C)[C@H](C(=O)C=C4[C@@]5(C)C=C(C#N)C(=O)C(C)(C)[C@@H]5CC[C@]43C)[C@@H]2C1", "note": "[RTA 408, N-((4aS,6aR,6bS,8aR,12aS,14aR,14bS)-11-cyano-2,2,6a,6b,9,9,12a-heptamethyl-10,14-dioxo-1,2,3,4,4a,5,6,6a,6b,7,8,8a,9,10,12a,14,14a,14b-octadecahydropicen-4a-yl)-2,2-difluoropropanamide]", "values": [{"measurement": "Parent molecule remaining", "setting": "[1]", "value": "< 10", "unit": "%"}, {"measurement": "Inflammation and interstitial fibrosis (lung histology)", "setting": "[2]", "value": "no statistically significant effects were observed"}, {"measurement": "Tumor image (luciferase), RTA 408 plus ionizing radiation", "setting": "[3]", "value": "no visible tumor on Day 21"}, {"measurement": "Body weight gain approximately 24 h after dosing", "setting": "neurobehavioral measures; 30 mg/kg", "value": "Slight decreases in body weight gain"}, {"measurement": "Neurobehavioral endpoints", "setting": "neurobehavioral measures; single oral dose up to and including 30 mg/kg", "value": "did not produce any adverse effects"}, {"measurement": "Intracellular pyruvate levels", "setting": "[4]", "value": "increased intracellular pyruvate levels in a dose-dependent manner"}]}
